Data from patent US20230128198A1, “NOVEL HETEROCYCLIC COMPOUNDS USEFUL AS AURORA A SELECTIVE INHIBITORS” (JACOBIO PHARMACEUTICALS CO., LTD., priority 2020, published 2023).

Legend:
[1] = system: NCI-H446 and NCI-H69 human small cell lung cancer xenograft model; experiment: In vivo anti-tumor efficacy, xenograft model; parameters: species or system BALB/c nude mice; conditions: 15 mg/kg po., BID × 10 days, QD × 19 days, treatment 29 days
Description: This study is to examine the anti-tumor efficacy of test compounds in NCI-H446 and NCI-H69 human small cell lung cancer xenograft model in BALB/c nude mice. Each mouse was inoculated subcutaneously at the right flank region with NCI-H446 (3×10^6) and NCI-H69 cells (5×10^6) in 0.1 mL of PBS and Matrigel (1:1) for tumor development. The mouse were randomized according to tumor size and weight, the treatment began when the mean tumor size reached 100-200 mm^3. Anti-tumor activity was assessed according to relative tumor inhibition rate (TGI).
Tumor volumes were measured in two dimensions using a caliper, and the volume was expressed in mm^3 using the formula: V=0.5a×b^2 where a and bare the long and short diameters of the tumor, respectively. Statistical analysis of difference in tumor volume among the groups were performed using one-way ANOVA. All data was analyzed using SPSS 22.0 software. p<0.05 was considered to be statistically significant.

Aurora B = Aurora B (Homo sapiens, UniProt Q96GD4); experiment: Aurora B kinase assay (mobility shift assay); format: biochemical; conditions: ratio of Aurora B IC50 to Aurora A IC50
Description: (§1) Example A: Evaluation of Aurora a and Aurora B Inhibitory Effect—Kinase Assay
(§2) The inhibitory activities of a test compound against Aurora A and Aurora B were measured according to the following method.
(§3) The IC50 value of Aurora A and Aurora B kinase was performed by Sundia MediTech Co. Ltd. using Mobility shift assay.
(§4) • (1) Prepare a 1× kinase buffer [50 mM 4-(2-hydroxyethyl)-1-piperazineethanesulfonic acid (HEPES), PH 7.5, 0.01% Brij-35, 10 mM MgCl2, 2 mM dithiothreitol (DTT)]. • (2) Prepare compound:
The testing compound was dissolved with DMSO. The testing compound was diluted up to 100× final concentration in a 384-well plate. Transfer 250 nL of the compound dilution to a 384-well assay plate using Echo 550. 100% DMSO of 250 nL was added to the negative control well and the positive control well. • (3) Prepare a 2.5× enzyme solution using the above 1× kinase buffer. • (4) Add 10 μL of the 2.5× enzyme solution to the compound well and the positive control well of the 384-well assay plate.
Conversion %_sample is conversion rate data of samples. Conversion %_min is mean value of negative control (conversion rate data without enzyme activation). Conversion %_max is mean positive control (conversion rate data without compound).
The log of concentration is on the X axis, and the percentage inhibition is on the Y axis.

Aurora A = molecular target: T1, Aurora A (Homo sapiens, UniProt O14965); experiment: Aurora A kinase assay (mobility shift assay); format: biochemical
T1 sequence (O14965 1-403): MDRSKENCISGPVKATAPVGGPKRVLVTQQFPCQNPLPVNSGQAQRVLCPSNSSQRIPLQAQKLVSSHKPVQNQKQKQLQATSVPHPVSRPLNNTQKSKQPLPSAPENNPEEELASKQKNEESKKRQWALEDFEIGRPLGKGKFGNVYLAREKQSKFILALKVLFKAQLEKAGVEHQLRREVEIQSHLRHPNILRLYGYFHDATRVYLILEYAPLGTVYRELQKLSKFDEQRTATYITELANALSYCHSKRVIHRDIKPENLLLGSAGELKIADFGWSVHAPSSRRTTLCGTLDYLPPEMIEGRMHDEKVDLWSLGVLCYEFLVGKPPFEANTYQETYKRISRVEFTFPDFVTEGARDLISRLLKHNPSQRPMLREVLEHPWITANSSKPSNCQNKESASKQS
Description: as §1, §2, §3, §4
The testing compound was dissolved with DMSO. The testing compound was diluted up to 100× final concentration in a 384-well plate. Transfer 250 nL of the compound dilution to a 384-well assay plate using Echo 550. […] Add 10 μL of the 1× kinase buffer to the negative control well. • (5) The 384-well plate was centrifuged at 1000 rpm for 30 seconds and incubated at room temperature for 10 min. • (6) A mixture of ATP and Kinase substrate 21 with a final concentration of 25/15× was prepared by the 1× kinase buffer. • (7) Add 15 µL of the mixture of 25/15×ATP and kinase substrate solution 21 to start reaction. • (8) The 384-well plate was centrifuged at 1000 rpm for 30 seconds and incubated at room temperature. • (9) 30 µL of the stop and detection buffer was added to stop the kinase reaction and centrifuged at 1000 rpm for 30 seconds. • (10) Collect data on Caliper EZ ReaderII. […]

PK in rat = format: in vivo, SD male rats
Description: The compounds were dissolved into 10% DMSO, 30% PEG400, and 60% saline to obtain a solution. SD male rats were given the compound orally and intravenously. Then plasma samples were collected at 0 hour (pre-dose), 0.25, 0.5, 1, 2, 4, 7, 24 hours post-dose. Plasma drug concentration was detected by LC-MS/MS. Pharmacokinetic parameters were calculated using WinNonlin's software with non-compartmental model.

Chain of Aurora B (Q96GD4 whole entry): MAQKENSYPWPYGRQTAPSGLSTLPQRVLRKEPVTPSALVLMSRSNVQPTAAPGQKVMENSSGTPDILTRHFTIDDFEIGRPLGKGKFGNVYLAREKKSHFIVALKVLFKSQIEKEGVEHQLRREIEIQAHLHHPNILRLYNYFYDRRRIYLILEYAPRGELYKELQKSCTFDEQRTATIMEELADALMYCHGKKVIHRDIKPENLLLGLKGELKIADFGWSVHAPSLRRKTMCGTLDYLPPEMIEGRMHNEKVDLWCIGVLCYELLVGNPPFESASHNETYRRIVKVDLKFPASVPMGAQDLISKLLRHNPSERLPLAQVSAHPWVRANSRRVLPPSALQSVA

Compound | TGI TV(%) [1] | TV (mean ± sem) [1] | further results
Cc1cc(Nc2nc(C[C@@]3(C(=O)O)CCN(Cc4cccc(Cl)c4F)[C@H](C)C3)ccc2F)[nH]n1 [Example 5, (2R,4R)-1-(3-chloro-2-fluorobenzyl)-4-((5-fluoro-6-((3-methyl-1H-pyrazol-5-yl)amino)pyridin-2-yl)methyl)-2-methylpiperidine-4-carboxylic acid] | 98% | 27 ± 5 mm^3 | 
Cc1cc(Nc2cc(C)c(F)c(C[C@@]3(C(=O)O)CCN(Cc4cccc(Cl)c4F)[C@H](C)C3)n2)n[nH]1 [Example 49, (2R,4R)-1-(3-chloro-2-fluorobenzyl)-4-((3-fluoro-4-methyl-6-((5-methyl-1H-pyraz-ol-3-yl)amino)pyridin-2-yl)methyl)-2-methylpiperidine-4-carboxylic acid] | 90% | 160 ± 26 mm^3 | 
CC(=O)c1cc(Nc2cc(C)[nH]n2)nc(CC2(C(=O)O)CCN(Cc3cccc(Cl)c3F)CC2)c1F [Example 69, 4-((4-acetyl-3-fluoro-6-((5-methyl-1H-pyrazol-3-yl)amino)pyridin-2-yl)methyl)-1-(3-chloro-2-fluorobenzyl) piperidine-4-carboxylic acid] |  |  | IC50 Ratio Aur B/Aur A (Aurora B): 1444; IC50 (Aurora A): 0.91 nM
Cc1cc(Nc2cc(Cl)c(F)c(C[C@@]3(C(=O)O)CCN(Cc4cccc(Cl)c4F)[C@H](C)C3)n2)n[nH]1 [Example 72, (2R,4R)-1-(3-chloro-2-fluorobenzyl)-4-((4-chloro-3-fluoro-6-((5-methyl-1H-pyrazol-3-yl)amino)pyridin-2-yl)methyl)-2-methylpiperidine-4-carboxylic acid] | 89% | 176 ± 25 mm^3 | 
Cc1cc(Nc2nc(C[C@@]3(C(=O)O)CCN(Cc4cccc(Cl)c4F)[C@H](C)C3)cc(C)c2F)n[nH]1 [Example 78, (2R,4R)-1-(3-chloro-2-fluorobenzyl)-4-((5-fluoro-4-methyl-6-((5-methyl-1H-pyrazol-3-yl)amino)pyridin-2-yl)methyl)-2-methylpiperidine-4-carboxylic acid] | 96% | 65 ± 14 mm^3 | 
Cc1cc(Nc2ccc(F)c(C[C@@]3(C(=O)O)CCN(Cc4cccc(Cl)c4F)[C@H](C)C3)n2)n[nH]1 [LY3295668] |  |  | CL (PK in rat; IV: 3 mg/kg): 1.52 mL/min/kg; Vss (PK in rat; IV: 3 mg/kg): 0.29 L/kg; AUClast (PK in rat; PO: 10 mg/kg): 91211 ng·h/mL; Cmax (PK in rat; PO: 10 mg/kg): 15033 ng/mL; t½ (PK in rat; PO: 10 mg/kg): 3.37 h; F % (PK in rat; PO: 10 mg/kg vs IV: 3 mg/kg): 81%
